In patent publication US20100247579A1, “THERAPEUTIC AGENT FOR CANCER” (priority 2007, published 2010):
≈ marks a conversion by molar mass, not a printed value. Where a name gives a salt, the structure may show the parent alone. Read-outs that look alike come from different tables or passages of the source.

Legend:
[1] = system: expanded lymphocytes derived from a human healthy donor; experiment: Resistance to anticancer agents, WST-1 GI50 on cultured lymphocytes of a human healthy donor; type: cell-based; conditions: for GI50: Homo sapiens, Lymphocyte
Experimental: (§1) On the other hand, the IL-2/5HRPMI was added to the control group in 50 μL/well each.
(§2) These culture plates were incubated at 37° C. for 20 hours in the presence of 5% CO2. After the incubation, WST-1 (Premix WST-1 Cell Proliferation Assay System, manufactured by Takara Bio Inc.) was added in 20 μL/well each to each well of the plate, and incubated in the presence of 5% CO2 at 37° C. for 4 hours. The plates after the incubation were centrifuged at 500×g at room temperature for 5 minutes. After the centrifugation, 100 μL of the supernatant was collected from each well, and the absorbance was measured at an absorption wavelength of 450 nm and a control wavelength of 630 nm [hereinafter referred to as the absorbance (450 nm-630 nm)] using a microplate reader (manufactured by Bio-Rad Laboratories, Inc., Model Number 680XR), and then the specific absorbance (450 nm-630 nm) was calculated according to the following formula.
(§3) Specific absorbance (450 nm-630 nm)=Absorbance of Test Cell Addition Group (450 nm-630 nm)−Absorbance of Control Group (450 nm-630 nm) Formula 2: […]
Here, a group where only OKT3 was immobilized to the culture equipment in the expansion of the lymphocytes was also set.
However, in the case of paclitaxel, a human AB type serum was used as a solvent for dilution, and for other drugs, 5HRPMI was used for dilution.

[2] = system: lymphocytes derived from cancer patient No. PT009 expanded with OKT3 and CH-296; experiment: Resistance to anticancer agents, WST-1 GI50 on cultured lymphocytes of cancer patient No. PT009; type: cell-based, human; conditions: day 10 of culture with OKT3 and CH-296, 20 hours with drug
Experimental: After that, the suspension was stained by the trypan blue staining method to calculate the viable cell count, and then subjected to each experiment.
as §1, §2, §3

[3] = healthy donor lymphocytes expanded with OKT3 + CH-296, read-out: GI50 (μg/mL) Initial Stimulation OKT3 + CH-296
[4] = healthy donor lymphocytes expanded with OKT3 alone, read-out: GI50 (μg/mL) Initial Stimulation OKT3
[5] = Homo sapiens, Lymphocyte, read-out: GI50

Row | Compound | GI50 (μg/mL) Initial Stimulation OKT3 + CH-296 ([1]; healthy donor lymphocytes expanded with OKT3 + CH-296) | GI50 (μg/mL) Initial Stimulation OKT3 ([1]; healthy donor lymphocytes expanded with OKT3 alone) | GI50 [2] | GI50 [1, 3] | GI50 [1, 4] | GI50 [2, 5]
1 | N.N.O=C([O-])C1(C(=O)[O-])CCC1.[Pt+2] [Carboplatin, carboplatin] | 161.31 µg/mL | 116.16 µg/mL | 215.5 µg/mL |  |  | 
2 | O=c1[nH]cc(F)c(=O)[nH]1 [Fluorouracil, fluorouracil] |  |  |  | 3270 µg/mL | 2290 µg/mL (≈ 17.6 mM) | 639 µg/mL (≈ 4.91 mM)
3 | CC[C@]1(O)C[C@H]2CN(CCc3c([nH]c4ccccc34)[C@@](C(=O)OC)(c3cc4c(cc3OC)N(C=O)[C@H]3[C@@](O)(C(=O)OC)[C@H](OC(C)=O)[C@]5(CC)C=CCN6CC[C@]43[C@@H]65)C2)C1 [Vincristine Sulfate, vincristine sulfate] |  |  |  | 24.3 µg/mL | 4.42 µg/mL | 0.2 µg/mL
4 | CC(=O)O[C@H]1C(=O)[C@@]2(C)[C@H]([C@H](OC(=O)c3ccccc3)[C@]3(O)C[C@H](OC(=O)[C@H](O)[C@@H](NC(=O)c4ccccc4)c4ccccc4)C(C)=C1C3(C)C)[C@]1(OC(C)=O)CO[C@@H]1C[C@@H]2O [Paclitaxel, paclitaxel] |  |  |  | 39.7 µg/mL | 34.1 µg/mL (≈ 0.0399 mM) | 
